Measured values as given in PMC7281072 (Cancers, 2020).
Where two headings read alike, the source gives them in different places.

How the values were obtained:
ERK1,2 phosphorylation [1] = test: ERK1/2 phosphorylation ELISA, SK-OV-3 cells; assay type: cell-based, human; conditions: Homo sapiens, 1 h, 60 min, read-out: IC50, pERK 1/2 inhibition
CB17 SCID mice = conditions: both, mouse, in vivo, ip
AKT1,2 phosphorylation = test: AKT phosphorylation ELISA, SK-OV-3 cells; assay type: cell-based, human; conditions: for Vmax ± SE, pAKT 1/2 inhibition: Michaelis Menten model; for IC50: Homo sapiens, read-out: IC50, pAKT 1/2 inhibition
[2] = tested on: UWB1.289+BRCA1 cancer cell line; test: cells; conditions: Homo sapiens, 48 h
[3] = tested on: SKOV-3 human ovarian adenocarcinoma xenograft; design: species or system CB17 SCID mice; conditions: mouse, in vivo
OVCAR-3 cancer cell line = test: cells; conditions: Homo sapiens, OVCAR-3, 48 h
pERK1,2 [4] = test: Western immunoblotting densitometry, pERK1,2, SKOV-3 cells; assay type: cell-based, human; conditions: 25 μM; for ratio [pERK1+pERK2]/[GAPDH] band intensity: SKOV-3 cells; for ratio [pERK1+pERK2]/[GAPDH] band intensity, single blot (panel A): panel A lower set, cell line not given
ERK1,2 phosphorylation [5] = test: ERK1/2 phosphorylation ELISA, UWB1.289 cells; assay type: cell-based, human; conditions: for Vmax ± SE, pERK 1/2 inhibition: Michaelis Menten model; for IC50: Homo sapiens, read-out: IC50, pERK 1/2 inhibition
pERK1,2 [6] = test: Western immunoblotting densitometry, pERK1,2, OVCAR-3 cells; assay type: cell-based, human; conditions: 25 μM; for ratio [pERK1+pERK2]/[GAPDH] band intensity: OVCAR-3 cells; for ratio [pERK1+pERK2]/[GAPDH] band intensity, single blot (panel A): panel A upper set, cell line not given
pAKT [7] = test: Western immunoblotting densitometry, pAKT, OVCAR-3 cells; assay type: cell-based, human; conditions: 25 μM; for ratio [pAKT]/[GAPDH] band intensity: OVCAR-3 cells; for ratio [pAKT]/[GAPDH] band intensity, single blot (panel A): panel A upper set, cell line not given, control ratio 1.21
pAKT [8] = test: Western immunoblotting densitometry, pAKT, SKOV-3 cells; assay type: cell-based, human; conditions: 25 μM; for ratio [pAKT]/[GAPDH] band intensity: SKOV-3 cells; for ratio [pAKT]/[GAPDH] band intensity, single blot (panel A): panel A lower set, cell line not given, control ratio 0.996
[9] = read-out: GI50 (50% Growth Inhibition)
[10] = read-out: IC50 (cytotoxic effect)

## C[C@]12CC[C@H]3[C@@H](CCC4=CC(=O)NCC[C@@]43C)[C@@H]1CC[C@@H]2OC(=O)CCOc1ccc(N(CCCl)CCCl)cc1 [ENGA-L06E, 5a,7a-dimethyl-2-oxo-2,3,4,5,5a,5b,6,7,7a,8,9,10,10a,10b,11,12-hexa decahydrocyclopenta [5, 6] naphtho [1,2-d] azepin-8-yl 3-(4-(bis(2-chloroethyl)amino)phenoxy) propanoate]
ERK1,2 phosphorylation [1]
  IC50: 8.78 µM
CB17 SCID mice
  LD10: 120 mg/kg
AKT1,2 phosphorylation; 15 min
  Vmax ± SE, pAKT 1/2 inhibition: 79.23 ± 0.39
AKT1,2 phosphorylation; 30 min
  Vmax ± SE, pAKT 1/2 inhibition: 86.10 ± 1.13
AKT1,2 phosphorylation; 60 min
  Vmax ± SE, pAKT 1/2 inhibition: 87.27 ± 0.59
AKT1,2 phosphorylation; 0.25 h, 15 min
  IC50: 25.9 µM
AKT1,2 phosphorylation; 0.5 h, 30 min
  IC50: 22.3 µM
AKT1,2 phosphorylation; 1 h, 60 min
  IC50: 21.4 µM
[2]; [9]
  GI50: 12 ± 0.7 µM
[2]; [10]
  IC50: 40 ± 3.5 µM
[3]
  Median Overall Survival (OS): 112 days
  Progression Free Survival (PFS): 11 days
  Response Rate (RR): 100%
[3]; ip
  Cures (mice alive for 120 days after tumor inoculation): 2/5
  MST (mean survival time): 79.6 ± 4.0 p < 0.01 Days
  T/C% (mean survival time of treated versus saline controls): 195.6%
  TI% (Tumor Inhibition): 67.6%
  size of the primary tumor: 478 ± 18.3 mm^3
OVCAR-3 cancer cell line; [9]
  GI50: 22 ± 0.9 µM
OVCAR-3 cancer cell line; [10]
  IC50: 43 ± 2.9 µM
pERK1,2 [4]; 15min, control ratio 1.70
  ratio [pERK1+pERK2]/[GAPDH] band intensity: 1.91
pERK1,2 [4]; 30min, control ratio 1.70
  ratio [pERK1+pERK2]/[GAPDH] band intensity: 1.74
pERK1,2 [4]; 1h, control ratio 1.78
  ratio [pERK1+pERK2]/[GAPDH] band intensity: 1.35
  ratio [pERK1+pERK2]/[GAPDH] band intensity, single blot (panel A): 0.99
pERK1,2 [4]; 3h, control ratio 1.74
  ratio [pERK1+pERK2]/[GAPDH] band intensity: 0.68
pERK1,2 [4]; 12h, control ratio 1.61
  ratio [pERK1+pERK2]/[GAPDH] band intensity: 0.65
pERK1,2 [4]; 3h, control ratio 1.78
  ratio [pERK1+pERK2]/[GAPDH] band intensity, single blot (panel A): 0.39
ERK1,2 phosphorylation [5]; 15 min
  Vmax ± SE, pERK 1/2 inhibition: 76.21 ± 2.11
ERK1,2 phosphorylation [5]; 60 min
  Vmax ± SE, pERK 1/2 inhibition: 89.63 ± 2.53
ERK1,2 phosphorylation [5]; UWB1289, 0.25 h, 15 min
  IC50: 6.81 µM
ERK1,2 phosphorylation [5]; UWB1289, 0.5 h, 30 min
  IC50: 4.12 µM
ERK1,2 phosphorylation [5]; UWB1289, 1 h, 60 min
  IC50: 3.53 µM
pERK1,2 [6]; 30min, control ratio 1.71
  ratio [pERK1+pERK2]/[GAPDH] band intensity: 1.40
pERK1,2 [6]; 1h, control ratio 1.65
  ratio [pERK1+pERK2]/[GAPDH] band intensity: 0.96
pERK1,2 [6]; 3h, control ratio 1.99
  ratio [pERK1+pERK2]/[GAPDH] band intensity: 1.11
pERK1,2 [6]; 6h, control ratio 1.85
  ratio [pERK1+pERK2]/[GAPDH] band intensity: 0.54
pERK1,2 [6]; 12h, control ratio 1.82
  ratio [pERK1+pERK2]/[GAPDH] band intensity: 0.49
pERK1,2 [6]; 24h, control ratio 1.92
  ratio [pERK1+pERK2]/[GAPDH] band intensity: 0.58
pERK1,2 [6]; 1h, control ratio 1.85
  ratio [pERK1+pERK2]/[GAPDH] band intensity, single blot (panel A): 0.74
pERK1,2 [6]; 3h, control ratio 1.85
  ratio [pERK1+pERK2]/[GAPDH] band intensity, single blot (panel A): 1.02
pAKT [7]; 30min, control ratio 1.23
  ratio [pAKT]/[GAPDH] band intensity: 0.92
pAKT [7]; 1h, control ratio 1.14
  ratio [pAKT]/[GAPDH] band intensity: 0.62
pAKT [7]; 3h, control ratio 1.27
  ratio [pAKT]/[GAPDH] band intensity: 0.61
pAKT [7]; 6h, control ratio 1.26
  ratio [pAKT]/[GAPDH] band intensity: 0.54
pAKT [7]; 12h, control ratio 1.18
  ratio [pAKT]/[GAPDH] band intensity: 0.50
pAKT [7]; 24h, control ratio 1.29
  ratio [pAKT]/[GAPDH] band intensity: 0.59
pAKT [7]; 1h
  ratio [pAKT]/[GAPDH] band intensity, single blot (panel A): 0.52
pAKT [7]; 3h
  ratio [pAKT]/[GAPDH] band intensity, single blot (panel A): 0.22
pAKT [8]; 15min, control ratio 0.98
  ratio [pAKT]/[GAPDH] band intensity: 0.94
pAKT [8]; 30min, control ratio 0.98
  ratio [pAKT]/[GAPDH] band intensity: 0.78
pAKT [8]; 1h, control ratio 1.02
  ratio [pAKT]/[GAPDH] band intensity: 0.73
pAKT [8]; 3h, control ratio 0.99
  ratio [pAKT]/[GAPDH] band intensity: 0.65
pAKT [8]; 12h, control ratio 0.94
  ratio [pAKT]/[GAPDH] band intensity: 0.58
pAKT [8]; 1h
  ratio [pAKT]/[GAPDH] band intensity, single blot (panel A): 0.40
pAKT [8]; 3h
  ratio [pAKT]/[GAPDH] band intensity, single blot (panel A): 0.20
